This passage reports Kact, IC50 and Km results from patent US7211423B2 (Bristol-Myers Squibb Co., priority 2004, dated 2007).

One assay concerns Rat ACC2. The following applies: Trumble et al. (1995), cited from earlier work; for IC50: literature value for rat ACC2 enzyme.
A further assay has as its target Rat ACC1 (Rattus norvegicus, UniProt P11497). The following applies: literature value, Trumble et al. (1995); cited from earlier work.
A further assay deals with T1, recombinant human ACC2 (Homo sapiens, UniProt O00763, V2141I).
T1 construct: To delete the NH2-terminus 148 amino acid of human ACC2; 6xHis (C); made in house; host or cells: Sf9 insect cells infected with recombinant baculovirus (pBlueBac-human-ACC2-Delta148-V5-Myc-His-WT); purified on a c-Myc-5 IgG column
Put plainly: ACC enzyme activity assay ([14C]bicarbonate fixation) with purified recombinant human ACC2. In kind it is biochemical. Particulars: for IC50: concentration dependent inhibition of recombinant human ACC2; for Km: substrate varied, all other reagents saturating, 37° C. On the procedure:
ACC enzymatic assays were carried out essentially according to Tanabe et al. (Tanabe et al., (1981) Methods Enzymol. 71 Pt C, 5–16) with modifications. […] Aliquots of 30 μl of 25 mM KH[^14C]O3 (specific activity 1.3 μCi/μmol, final KH[^14C]O3, concentration 5 mM) was then added to the mixture to initiate the reaction which was carried out for 10 min at 37° C. At the end, the reactions were quenched with 50 μl 2 N HCl and the vials were heated for 2 hours at 80° C. to remove excess bicarbonate as ^14CO2. Scintillant was then added and the acid-stable malonyl CoA remaining in the vial was counted in a scintillation counter. ACC specific activities were expressed as nmol/min/mg protein.

SMILES strings stand for the structures.

T1 sequence (O00763 149-2458 V2141I): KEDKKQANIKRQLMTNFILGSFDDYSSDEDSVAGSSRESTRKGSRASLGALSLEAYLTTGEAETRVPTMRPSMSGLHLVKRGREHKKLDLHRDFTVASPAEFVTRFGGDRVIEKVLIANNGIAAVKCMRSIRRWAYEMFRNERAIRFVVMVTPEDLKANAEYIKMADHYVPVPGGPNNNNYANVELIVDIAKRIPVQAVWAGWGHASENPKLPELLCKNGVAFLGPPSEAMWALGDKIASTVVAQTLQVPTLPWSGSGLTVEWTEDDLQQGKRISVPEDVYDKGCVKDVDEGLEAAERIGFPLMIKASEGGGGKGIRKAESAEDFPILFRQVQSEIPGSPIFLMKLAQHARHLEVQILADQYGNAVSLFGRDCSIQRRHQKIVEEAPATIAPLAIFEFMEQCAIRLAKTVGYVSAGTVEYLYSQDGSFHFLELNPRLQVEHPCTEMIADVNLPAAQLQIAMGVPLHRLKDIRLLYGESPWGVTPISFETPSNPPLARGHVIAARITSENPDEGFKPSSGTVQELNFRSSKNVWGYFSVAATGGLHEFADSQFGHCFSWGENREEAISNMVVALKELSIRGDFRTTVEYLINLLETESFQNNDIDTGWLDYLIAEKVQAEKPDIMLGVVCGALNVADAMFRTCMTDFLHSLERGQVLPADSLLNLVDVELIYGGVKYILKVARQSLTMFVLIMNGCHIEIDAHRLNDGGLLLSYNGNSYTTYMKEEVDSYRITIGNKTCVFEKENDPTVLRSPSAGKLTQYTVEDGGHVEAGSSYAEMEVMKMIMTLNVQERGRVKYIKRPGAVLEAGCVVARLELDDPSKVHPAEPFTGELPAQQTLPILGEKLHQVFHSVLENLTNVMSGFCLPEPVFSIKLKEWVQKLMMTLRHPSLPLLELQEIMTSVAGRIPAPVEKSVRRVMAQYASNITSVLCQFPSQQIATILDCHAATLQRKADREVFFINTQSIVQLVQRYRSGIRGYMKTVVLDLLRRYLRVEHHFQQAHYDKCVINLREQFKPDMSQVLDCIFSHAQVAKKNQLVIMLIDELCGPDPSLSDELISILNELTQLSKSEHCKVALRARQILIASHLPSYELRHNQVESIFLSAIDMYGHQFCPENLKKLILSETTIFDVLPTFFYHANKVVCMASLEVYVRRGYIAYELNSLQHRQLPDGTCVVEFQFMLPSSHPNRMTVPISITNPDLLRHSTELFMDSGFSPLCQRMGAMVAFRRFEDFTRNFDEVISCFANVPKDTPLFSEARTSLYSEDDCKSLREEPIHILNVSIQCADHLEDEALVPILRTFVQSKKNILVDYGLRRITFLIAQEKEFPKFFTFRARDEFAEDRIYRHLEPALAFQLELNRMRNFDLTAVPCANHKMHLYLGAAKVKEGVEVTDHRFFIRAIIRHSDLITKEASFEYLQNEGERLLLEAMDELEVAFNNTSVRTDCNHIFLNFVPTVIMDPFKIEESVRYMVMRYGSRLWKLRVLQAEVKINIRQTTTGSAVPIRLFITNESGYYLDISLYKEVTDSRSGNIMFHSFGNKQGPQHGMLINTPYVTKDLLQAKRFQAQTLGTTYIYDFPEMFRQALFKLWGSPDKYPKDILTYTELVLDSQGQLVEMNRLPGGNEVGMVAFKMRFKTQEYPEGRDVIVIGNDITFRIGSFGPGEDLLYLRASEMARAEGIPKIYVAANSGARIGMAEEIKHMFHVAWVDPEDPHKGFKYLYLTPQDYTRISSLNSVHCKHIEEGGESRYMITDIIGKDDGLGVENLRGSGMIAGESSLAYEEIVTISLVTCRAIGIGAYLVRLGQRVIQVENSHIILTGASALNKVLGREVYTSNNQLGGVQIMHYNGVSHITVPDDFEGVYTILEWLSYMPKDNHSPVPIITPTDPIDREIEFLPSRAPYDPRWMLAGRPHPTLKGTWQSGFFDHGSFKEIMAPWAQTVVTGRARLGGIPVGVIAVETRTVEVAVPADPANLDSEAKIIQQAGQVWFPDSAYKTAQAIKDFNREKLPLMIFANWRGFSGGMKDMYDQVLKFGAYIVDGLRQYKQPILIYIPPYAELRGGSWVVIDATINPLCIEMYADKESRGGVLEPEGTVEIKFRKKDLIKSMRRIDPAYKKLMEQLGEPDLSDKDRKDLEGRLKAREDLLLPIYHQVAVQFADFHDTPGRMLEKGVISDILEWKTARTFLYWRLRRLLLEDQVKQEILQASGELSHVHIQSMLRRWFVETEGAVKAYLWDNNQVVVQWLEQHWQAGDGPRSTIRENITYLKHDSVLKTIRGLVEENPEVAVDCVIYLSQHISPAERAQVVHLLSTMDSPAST

Take `O=C(O)CC(O)(CC(=O)O)C(=O)O` [Citrate]: the values for the Kact with Rat ACC2 (literature value) and on Rat ACC1 were 2.1 mM and 3 mM, respectively.
For the compound `CC(C)(COP(=O)(O)OP(=O)(O)OC[C@H]1O[C@@H](n2cnc3c(N)ncnc32)[C@H](O)[C@@H]1OP(=O)(O)O)[C@@H](O)C(=O)NCCC(=O)NCCSC(=O)CC(=O)O` [malonyl CoA], the IC50 at recombinant human ACC2 is 26.7 µM; in the assay with Rat ACC2 it was 10.6 µM.
For the compound `CCCCCCCCCCCCCCCC(=O)SCCNC(=O)CCNC(=O)[C@H](O)C(C)(C)COP(=O)(O)OP(=O)(O)OC[C@H]1O[C@@H](n2cnc3c(N)ncnc32)[C@H](O)[C@@H]1OP(=O)(O)O` [palmitoyl CoA], the values for the 50% inhibitory concentration (IC50) at recombinant human ACC2 and in the assay on Rat ACC2 were 4.4 µM and 2.2 µM, respectively.
`Nc1ncnc2c1ncn2[C@@H]1O[C@H](COP(=O)(O)OP(=O)(O)OP(=O)(O)O)[C@@H](O)[C@H]1O` [ATP]: the Km on recombinant human ACC2 was 270 µM; in the assay with Rat ACC2 (literature value) it was 58 µM; at Rat ACC1 it was 110 µM.
As to `CC(=O)SCCNC(=O)CCNC(=O)[C@H](O)C(C)(C)COP(=O)(O)OP(=O)(O)OC[C@H]1O[C@@H](n2cnc3c(N)ncnc32)[C@H](O)[C@@H]1OP(=O)(O)O` [Acetyl CoA, acetyl CoA], the results for the Km in the assay with Rat ACC2 (literature value) and on Rat ACC1 were 32 µM and 22 µM, respectively.
In the case of `O=C(O)O` [HCO3^−, bicarbonate], the values for the Km on recombinant human ACC2, in the assay with Rat ACC2 (literature value) and at Rat ACC1 were 5000 µM, 2300 µM and 2700 µM, respectively.

The IC50 is the concentration that inhibits the measured activity by half. By Km is commonly meant the substrate concentration at which the rate is half of its maximum.
